Assay results reported in patent US20230390297A1, “USE OF NUCLEOTIDE SYNTHESIS INHIBITORS FOR TARGETED THERAPY IN MLL3/4 COMPASS MUTANT CANCER” (priority 2022, published 2023).

Columns and labels:
WT and Mll3/4 KO mESCs = experiment: RNA-seq of WT and Mll3/4 KO mESCs treated with LTX -/+ HPX; type: cell-based, mouse; settings: 0.3 μM LTX or 50 μM HPX alone, 48 hours; LTX effect almost completely rescued by HPX
Protocol: (§1) FIG. 3. […] (A) WT and Mll3/4 KO cells were treated with 0-2.5 μM lometrexol (LTX)−/+50 hypoxanthine (HPX) for 48 hours. CellTiter-Glo® luminescent cell viability assay was performed to determine the percentage of inhibition under these conditions. (B) WT and KO cells were treated with 0.3 μM LTX−/+50 μM HPX for 48 hours, and cells were harvested for RNA-seq. Differential gene expression analyses were performed with indicated comparisons. (C) Principal component analysis of RNA-seq in (B). (D) Hierarchical clustering heatmap showing differentially expressed genes in KO cells in comparison with WT cells.
(§2) FIG. 10. Mll3/4 KO mESCs are more sensitive to purine synthesis inhibition. (A-B) WT and Mll3/4 KO cells were treated with 0-2.5 μM lometrexol (LTX) (A) or 0-5 methotrexate (MTX) (B) for 48 hours. CellTiter-Glo® luminescent cell viability assay was performed to determine the percentage of inhibition under these conditions with three different Mll3/4 KO clones included. (C) WT and Mll3/4 KO cells were treated with 0-40 μM SHIINI for 48 hours. MTT cell viability assay was performed to determine the percentage of inhibition under these conditions with three different Mll3/4 KO clones included.
Gene count tables were constructed using HTseq (56) with Ensembl gene annotations and used as input for edgeR 3.0.8 (57). Genes with Benjamini-Hochburg adjusted p-values less than were differentially expressed. Batch effects were removed using ComB at-seq on the raw read counts (58). Pathway analysis was performed with Metascape (59).

[1] = test system: MLL4 mutant colorectal cancer cells (SW480, DLD1, HCT116, RKO); experiment: CellTiter-Glo viability assay in MLL4 wild type and MLL4 mutant colorectal cell lines; type: cell-based, human; settings: 72 hours; LTX 0-30 μM, Piericidin A 0-10 μM, Phenformin 0-30 mM
Mll3/4 KO mESCs [2] = experiment: MTT cell viability assay in WT and Mll3/4 KO mESCs; type: cell-based, mouse; settings: 0-40 μM, 48 hours; three Mll3/4 KO clones
Protocol: as §2

Mll3/4 KO mESCs [3] = experiment: CellTiter-Glo luminescent cell viability assay in WT and Mll3/4 KO mESCs; type: cell-based, mouse; settings: 48 hours; LTX 0-2.5 μM, MTX 0-5; three Mll3/4 KO clones
Protocol: as §1, §2

[4] = test system: CAL51 breast cancer cells; experiment: CellTiter-Glo viability assay in CAL51 MLL4 WT, hNTD and KO cells; type: cell-based, human
Protocol: FIG. 17. Cells lacking of MLL4 function are selectively sensitive to de novo purine synthesis inhibition. (A) Tracer levels of glutamine (M+1) in SW1417, Caco2, RKO and HCT116 cells. (B) Labeled purine metabolite levels with 15 N glutamine tracing in SW1417, Caco2, RKO and HCT116 cells. MLL4 WT cells, blue; MLL4 mutant cells, red. (C) CellTiter-Glo® luminescent cell viability assay in CAL51 MLL4 WT, heterozygous truncation mutation (hNTD), and KO cells treated with MTX (0-1 μM). (D) CAL51 WT and MLL4KO cells were treated with 0.04, or 0.4 μM MTX in the presence of H2O, 50 μM thymidine or 50 μM inosine. CellTiter-Glo® luminescent cell viability assay was performed. (E-J) Cells were infected with lentiviruses expressing shCtrl, shGART or shPAICS. Two distinct shRNAs were included for GART and PAICS. Western blot showing the knockdown of GART and PAICS in RKO, HCT116, Caco2 and HT55 cells (E). The growth rates of HCT116 (F), RKO (G), Caco2 (H) and HT55 (I) cells with shCtrl, shGART or shPAICS were measured by cell counting, and the cell number was normalized with day 0. Colony formation of the four cell lines with GART or PAICS knockdown was performed by seeding 500 or 1000 cells in the 6 well plates and stained after 10-14 days of culture with media change every three days (J).

Compound: O=c1[nH]cnc2nc[nH]c12 [HPX, hypoxanthine]
- gene expression change in WT and Mll3/4 KO cells (WT and Mll3/4 KO mESCs): subtle gene expression or phenotypic change

Compound: [H]/N=C(/N)N/C(=N/[H])NCCc1ccccc1 [Phenformin]
- sensitivity of MLL4 mutant cells compared with MLL4 wild type cells (growth inhibition) [1]: no sensitivity difference between MLL4 WT and mutant cells

Compound: C/C=C(\C)[C@H](O)[C@H](C)/C=C(C)/C=C/C/C(C)=C/Cc1nc(OC)c(OC)c(O)c1C [Piericidin A]
- sensitivity of MLL4 mutant cells compared with MLL4 wild type cells (growth inhibition) [1]: no sensitivity difference between MLL4 WT and mutant cells

Compound: Cc1[nH]nc2c1C(c1cc(CO)cc(-c3ccccc3)c1)(C(C)C)C(C#N)=C(N)O2 (stereo not shown) [SHIN1]
- sensitivity of Mll3/4 KO cells compared with WT cells (percentage of inhibition, MTT) (Mll3/4 KO mESCs [2]): enhanced sensitivity

Compound: CN(Cc1cnc2nc(N)nc(N)c2n1)c1ccc(C(=O)N[C@@H](CCC(=O)O)C(=O)O)cc1 [methotrexate, (2S)-2-[[4-[(2,4-diaminopteridin-6-yl)methyl-methylamino]benzoyl]amino]pentanedioic acid]
- sensitivity of Mll3/4 KO cells compared with WT cells (percentage of inhibition of viability) (Mll3/4 KO mESCs [3]): enhanced sensitivity
- rescue of cytotoxic effect on MLL4KO cells by nucleosides ([4]; 0.04 or 0.4 μM MTX with 50 μM thymidine or 50 μM inosine): rescued by inosine not thymidine
- sensitivity of CAL51 cells with compromised MLL4 functions (MLL4hNTD, MLL4KO) compared with WT ([4]; MTX 0-1 μM): elevated MTX sensitivity
